Measured values taken from the NIST ThermoML archive (doi:10.1021/je500881x).
± gives the expanded uncertainty stated by the source.

Experiment: refractive index (Na D-line) (dimensionless); wn = mass fraction of the nth substance listed
Details: 288.15 K, 101 kPa, Liquid, Standard Abbe refractometry

refractive index (w1 = 0.5794) | refractive index (w1 = 0.4704) | SMILES
1.4892 ± 0.0004 | – | [Br-].[Br-].[Ca+2] [calcium bromide] + O
– | 1.4196 ± 0.0004 | [Br-].[Na+] [sodium bromide] + O
